Consider 19 compounds from US8414950B2, “High-purity rebaudioside D and low-calorie table top tablet containing the same” (PureCircle Sdn Bhd, priority 2009, dated 2013).

Entries after “also recorded” stand apart in the source; their conditions may differ. Where a SMILES comes first, the peptide text is derived from it.

For data set [1] the following is noted: cited from earlier work; for Sweetness power: standard sweetening power, saccharose = 1; for Relative sweetness: Table 2, relative to sucrose; for Sweetness potency, times higher than sucrose: related art.
The conditions of data set [2]: Table 2 and related-art text; cited from earlier work.
The conditions of data set [3]: Table 2; cited from earlier work.
A short description of the next data set: Heat and pH stability. In kind it is physicochemical.
Data set [4] in a line: Sweetness power / relative sweetness compared with sucrose. Conditions: high purity Rebaudioside D of the invention, compared to 10% sucrose solution.
A short description of data set [5]: Solubility in organic solvents. It counts as physicochemical. From the text:
Soluble in diluted solutions of methanol, ethanol, n-propanol, and isopropanol.
Insoluble in acetone, benzene, chloroform, and ether.

A short description of a further data set: Solubility in water. It counts as physicochemical. The following applies: high purity Rebaudioside D of the invention; increases with temperature. From the text: Solubility in water is around 0.2% which is increasing with increase in temperature. It precipitates again upon cooling the solution. Highly soluble during chromatographic separation stage and before crystallizing.

Data set [6] can be described thus: Quality of taste (sensory attributes). From the text:
Rebaudioside D is isolated and extracted, along with other steviol glycosides, from the Stevia rebaudiana Bertoni plant (“Stevia”), which is commercially cultivated in Japan, Taiwan, Malaysia, South Korea, China, Israel, India, Brazil, Australia, and Paraguay.

`CC1=CC(=O)NS(=O)(=O)O1` [Acesulfame-K]: the Sweetness power in data set [1] is recorded as 200.

Consider `C[C@@H](NC(=O)[C@@H](N)CC(=O)O)C(=O)NC1C(C)(C)SC1(C)C` [Alitame], for which the Sweetness power in data set [1] is 2000.

Take `COC(=O)[C@H](Cc1ccccc1)NC(=O)[C@@H](N)CC(=O)O` [Aspartame] (H-Asp-Phe-OMe): the Sweetness power in data set [1] is listed as 200.

Turning to `C=C1C[C@@]23CC[C@H]4[C@@](C)(CCC[C@@]4(C)C(=O)O[C@@H]4O[C@H](CO)[C@@H](O)[C@H](O)[C@H]4O)[C@@H]2CC[C@]1(O[C@@H]1O[C@H](CO)[C@@H](O)[C@H](O)[C@H]1O[C@@H]1O[C@@H](C)[C@H](O)[C@@H](O)[C@H]1O)C3` [Dulcoside A], in data set [2], the Quality of taste result was “Very bitter”. For the same compound, the “Solubility in water, %” value in data set [3] is 0.58%. Moreover, in data set [1], the Relative sweetness is 30 and the “Sweetness potency, times higher than sucrose” value (shortened to “Sweetness potency”) is recorded as “around 30 times”.

For `CC1(C)[C@@H](O[C@H]2O[C@H](C(=O)O)[C@@H](O)[C@H](O)[C@H]2O[C@@H]2O[C@H](C(=O)O)[C@@H](O)[C@H](O)[C@H]2O)CC[C@]2(C)[C@H]3C(=O)C=C4[C@@H]5C[C@@](C)(C(=O)O)CC[C@]5(C)CC[C@@]4(C)[C@]3(C)CC[C@@H]12` [Glycyrrhizin], in data set [1], the Sweetness power is given as 50.

As to `COc1ccc(CCC(=O)c2c(O)cc(O[C@@H]3O[C@H](CO)[C@@H](O)[C@H](O)[C@H]3O[C@@H]3O[C@@H](C)[C@H](O)[C@@H](O)[C@H]3O)cc2O)cc1O` [NHDC, neohesperidin dihydrochalcone], the Sweetness power in data set [1] was 1000.

On to `C=C1C[C@@]23CC[C@H]4[C@@](C)(CCC[C@@]4(C)C(=O)O[C@@H]4O[C@H](CO)[C@@H](O)[C@H](O)[C@H]4O)[C@@H]2CC[C@]1(O[C@@H]1O[C@H](CO)[C@@H](O)[C@H](O[C@@H]2O[C@H](CO)[C@@H](O)[C@H](O)[C@H]2O)[C@H]1O[C@@H]1O[C@H](CO)[C@@H](O)[C@H](O)[C@H]1O)C3` [Rebaudioside A], for which, in data set [2], the Quality of taste entry was “most favorable sensory attributes of the four major steviol glycosides; also recorded: Less Bitter”. Besides, the “Solubility in water, %” value in data set [3] is given as 0.80%. Further, in data set [1], the Relative sweetness is 200-400 and the Sweetness power is 450.

Take `C=C1C[C@@]23CC[C@H]4[C@@](C)(CCC[C@@]4(C)C(=O)O[C@@H]4O[C@H](CO)[C@@H](O)[C@H](O)[C@H]4O[C@@H]4O[C@H](CO)[C@@H](O)[C@H](O)[C@H]4O)[C@@H]2CC[C@]1(O[C@@H]1O[C@H](CO)[C@@H](O)[C@H](O[C@@H]2O[C@H](CO)[C@@H](O)[C@H](O)[C@H]2O)[C@H]1O[C@@H]1O[C@H](CO)[C@@H](O)[C@H](O)[C@H]1O)C3` [Rebaudioside D]: the “Heat and pH stability” value in “Heat and pH stability” was “heat and pH-stable”. Besides, the Quality of taste entry in data set [2] was “Like sucrose”. The “times sweeter than sugar” value in data set [4] was 180-200 times. Moreover, in data set [5] (acetone, benzene, chloroform, and ether), the “Solubility in non-alcohol organic solvents” value is recorded as “Insoluble”. Besides, the “Solubility in diluted alcohols” value in data set [5] (diluted solutions of methanol, ethanol, n-propanol, and isopropanol) is listed as “Soluble”. Also, in “Solubility in water”, the Solubility in water entry is “around 0.2%”. The “Solubility in water, %” value in data set [3] is 1.00%. For the same compound, the Relative sweetness in data set [1] is recorded as 220. In addition, the “Bitterness and aftertaste / sensory properties” value in data set [6] (amongst the sweet diterpenoid glycosides of Stevia) is “the least bitter, and with the least persistent aftertaste”; in data set [6] (amongst the sweet diterpenoid glycosides of Stevia; listed as Rebaudioside 1)), “excellent sensory properties”.

Consider `C=C1C[C@@]23CC[C@H]4[C@@](C)(CCC[C@@]4(C)C(=O)O[C@@H]4O[C@H](CO)[C@@H](O)[C@H](O)[C@H]4O[C@@H]4O[C@H](CO)[C@@H](O)[C@H](O)[C@H]4O)[C@@H]2CC[C@]1(O[C@@H]1O[C@H](CO)[C@@H](O)[C@H](O)[C@H]1O[C@@H]1O[C@H](CO)[C@@H](O)[C@H](O)[C@H]1O)C3` [Rebaudioside E], for which, in data set [2], the Quality of taste result is “Like sucrose”. Also, the “Solubility in water, %” value in data set [3] is given as 1.70%. The Relative sweetness in data set [1] is on record as 170.

With `C=C1C[C@@]23CC[C@H]4[C@@](C)(CCC[C@@]4(C)C(=O)O[C@@H]4O[C@H](CO)[C@@H](O)[C@H](O)[C@H]4O)[C@@H]2CC[C@]1(O[C@@H]1O[C@H](CO)[C@@H](O)[C@H](O)[C@H]1O)C3` [Rubusoside], the Quality of taste entry in data set [2] is on record as “Very bitter”. The Relative sweetness in data set [1] is 110.

In the case of `O=C1NS(=O)(=O)c2ccccc21` [Saccharine], in data set [1], the Sweetness power is on record as 300.

As to `OC[C@H]1O[C@@](CO)(O[C@H]2O[C@H](CO)[C@@H](O)[C@H](O)[C@H]2O)[C@@H](O)[C@@H]1O` [Saccharose], the Sweetness power in data set [1] is 1.

For the compound `C=C1C[C@@]23CC[C@H]4[C@@](C)(CCC[C@@]4(C)C(=O)O)[C@@H]2CC[C@]1(O)C3` [Steviol], the Quality of taste entry in data set [2] is “Very bitter”.

Regarding `C=C1C[C@@]23CC[C@H]4[C@@](C)(CCC[C@@]4(C)C(=O)O)[C@@H]2CC[C@]1(O[C@@H]1O[C@H](CO)[C@@H](O)[C@H](O)[C@H]1O[C@@H]1O[C@H](CO)[C@@H](O)[C@H](O)[C@H]1O)C3` [Steviolbioside], the Quality of taste entry in data set [2] is on record as “Unpleasant”. Moreover, the “Solubility in water, %” value in data set [3] is on record as 0.03%. Moreover, in data set [1], the Relative sweetness is 90.

Consider `C=C1C[C@@]23CC[C@H]4[C@@](C)(CCC[C@@]4(C)C(=O)O[C@@H]4O[C@H](CO)[C@@H](O)[C@H](O)[C@H]4O)[C@@H]2CC[C@]1(O[C@@H]1O[C@H](CO)[C@@H](O)[C@H](O)[C@H]1O[C@@H]1O[C@H](CO)[C@@H](O)[C@H](O)[C@H]1O)C3` [Stevioside], for which the Quality of taste entry in data set [2] was “Bitter”. The “Solubility in water, %” value in data set [3] is 0.13%. In addition, in data set [1], the Relative sweetness is given as 210; the “Sweetness potency” value is “around 210 times”; the Sweetness power is on record as 200.

With `OC[C@H]1O[C@H](O[C@]2(CCl)O[C@H](CCl)[C@@H](O)[C@@H]2O)[C@H](O)[C@@H](O)[C@H]1Cl` [Sucralose], the Sweetness power in data set [1] is 600.

Rebaudioside B: the Quality of taste result in data set [2] is reported as “Bitter”. The “Solubility in water, %” value in data set [3] is 0.10%. The Relative sweetness in data set [1] is given as 150.

In the case of Rebaudioside C, in data set [2], the Quality of taste result was “Bitter”. Besides, the “Solubility in water, %” value in data set [3] was 0.21%. Further, in data set [1], the Relative sweetness is 30 and the “Sweetness potency” value was “around 30 times”.

Consider Thaumatin, for which the Sweetness power in data set [1] was 3000.
